Columns and labels:
S. marcescens = assay: Bacterial growth assay, media supplemented with ascarosides; assay type: cell-based
Text: (§1) To test whether bacteria respond to ascarosides, a simple growth assay was utilized. […] Enhanced growth and rhizosphere colonization of P. fluorescens has been observed in the presence of nematodes (Knox, et al. (2004) Appl. Environ. Microbiol., 70:4666-4671) and this may be due to ascr #18 excretion. Next, a wider selection of bacterial species from soil and human environments, including P. tabacum, P. fluorescens, S. marcescens, E. faecalis, and B. subtilis, was studied. […] In contrast to ascr #18, the effects of other ascarosides such as ascr #9, ascr #10, and ascr #3 were species-specific.

P. fluorescens = assay: as above; assay type: cell-based
Text: as §1

B. subtilis = assay: as above; assay type: cell-based; settings: FIG. 1B
Protocol: (§2) FIG. 1A provides a graph and images of P. syringae growth. Bacterial growth media were supplemented with different concentrations of ascarosides. Ten-fold serially diluted bacterial cells were plated and bacterial growth and quantification was performed 3 days post incubation. FIG. 1B provides images of B. subtilis growth. Bacterial growth media were supplemented with different concentrations of ascarosides. Ten-fold serially diluted bacterial cells were plated and bacterial growth and quantification was performed 18 hours post incubation. FIG. 1C provides a graph showing biofilm formation of S. marcescens in the presence of 1 nM of ascr #3, ascr #9, ascr #10, and ascr #18. *P<0.05, **P<0.001, two-tailed t-test. Bacterial growth and biofilm assays have been independently repeated at least three times.
as §1

E. coli [1] = assay: as above; assay type: cell-based; settings: growth media supplemented with 1 and 10 nM
Text: as §1

E. faecalis = assay: as above; assay type: cell-based
Text: as §1

P. tabacum = assay: as above; assay type: cell-based
Text: as §1

A. tumefaciens = assay: as above; assay type: cell-based; settings: growth media supplemented with 1 and 10 nM
Text: as §1

Aspergillus fumigatus = assay: Microbial metabolism of ascr #18; assay type: in vitro ADME
Protocol: (§3) To identify which specific microbes from the soil are responsible for ascr #18 metabolism, the effect of ascr #18 on individual microbes was tested. Bacteria and fungi in the soil interact with nematodes in diverse ways (Lakshmanan, et al. (2014) Plant Physiol., 166:689-700; Knox, et al. (2004) Appl. Environ. Microbiol., 70:4666-4671; Siddiqui, et al. (1999) Bioresour. Technol., 69:167-179). Microbial metabolism of ascr #18 was assessed in three bacteria, E. coli, Agrobacterium tumefaciens, and P. syringae and two fungi, Aspergillus fumigatus and A. flavus, all of which are commonly found in soil. […] Whereas, like fungi, all tested plants and animals are capable of metabolizing ascr #18, it appears that bacteria (and perhaps other prokaryotes) lack this ability.

E. coli [2] = assay: Microbial metabolism of ascr #18; assay type: in vitro ADME
Protocol: as §3

A. flavus = assay: Microbial metabolism of ascr #18; assay type: in vitro ADME
Protocol: as §3

[3] = test system: Agrobacterium tumefaciens; assay: Microbial metabolism of ascr #18; assay type: in vitro ADME
Protocol: as §3

P. syringae [4] = assay: Microbial metabolism of ascr #18; assay type: in vitro ADME
Protocol: as §3

soil samples = assay: Comparative metabolomics of soil samples treated with ascr #18; assay type: in vitro ADME
Protocol: (§4) To investigate whether ascarosides affect soil microbiomes, soil samples were collected from sites free from pesticide and fertilizer applications to ensure inclusion of a representative diversity of natural microbes (Panke-Buisse, et al. (2015) ISME J., 9:980-9; Lebeis, et al. (2015) Science 349:860-864). The soil samples were treated with low nanomolar concentrations of ascr #18 for 24 hours followed by microbial DNA and metabolome extraction. DNA sequencing was performed by targeting conserved 16s rRNA for bacteria and internal transcribed spacer (ITS) gene for fungi (Panke-Buisse, et al. (2015) ISME J., 9:980-9).
as §3

P. syringae [5] = assay: Bacterial growth assay, media supplemented with ascarosides; assay type: cell-based; settings: growth media supplemented with 1 and 10 nM; FIG. 1A
Protocol: as §2, §1

soil microbiome = assay: Soil samples treated with ascr #18, microbial DNA sequencing (16s rRNA, ITS); settings: low nanomolar concentrations, 24 hours; preliminary analyses
Protocol: as §4

Row | Structure (SMILES) | bacterial growth of S. marcescens (S. marcescens) | bacterial growth of P. fluorescens (P. fluorescens) | bacterial growth of B. subtilis (B. subtilis) | bacterial growth of E. coli (E. coli [1]) | bacterial growth of E. faecalis (E. faecalis) | bacterial growth of P. tabacum (P. tabacum) | bacterial growth of A. tumefaciens (A. tumefaciens) | metabolism of ascr #18 by Aspergillus fumigatus (Aspergillus fumigatus) | metabolism of ascr #18 by E. coli (E. coli [2]) | metabolism of ascr #18 by A. flavus (A. flavus) | metabolism of ascr #18 by Agrobacterium tumefaciens [3] | metabolism of ascr #18 by P. syringae (P. syringae [4]) | metabolism of ascr #18 in soil samples (soil samples) | bacterial growth of P. syringae (P. syringae [5]) | effect on microbial composition of the soil (soil microbiome)
1 | CC1O[C@@H](O[C@H](C)CCCCCCC(=O)O)C(O)C[C@H]1O (stereo partly drawn) [ascr #10] | promoted growth | suppressed | suppressed |  |  |  |  |  |  |  |  |  |  |  | 
2 | C[C@H](CCC(=O)O)O[C@@H]1O[C@@H](C)[C@H](O)C[C@H]1O [ascr #9] | promoted growth | suppressed | suppressed |  |  |  |  |  |  |  |  |  |  |  | 
3 | CC1O[C@@H](O[C@@H](C)CCCCCCCCC(=O)O)C(O)C[C@H]1O (stereo in doubt) [ascr #18, (10R)-(3′R,5′R-dihydroxy-6'S-methyl-(2H)-tetrahydropyran-2-yloxy)-undecanoic acid] | generally promoted growth | generally promoted growth | generally promoted growth | not affected | generally promoted growth | generally promoted growth | not affected | metabolized into shorter-chained ascarosides | none of the bacteria were able to metabolize | metabolized into shorter-chained ascarosides | none of the bacteria were able to metabolize | none of the bacteria were able to metabolize | extensively edited into shorter side-chained ascarosides | significant growth increase | shifts microbial composition of the soil
4 | CC1O[C@@H](O[C@H](C)CCCC/C=C/C(=O)O)C(O)C[C@H]1O (stereo partly drawn) [ascr #3] | promoted growth | suppressed | suppressed |  |  |  |  |  |  |  |  |  |  |  | 

From patent US12604893B2, “Compositions and methods for modulating microbiomes” (BOYCE THOMPSON INSTITUTE FOR PLANT RESEARCH, INC., priority 2019, dated 2026)
